# Laboratory results reported in patent US8648066B2 (Exelixis, Inc., priority 2009, dated 2014).
# pIC50: −log10 of the molar value.
# Key:
# [1] = target: PI3Kα (Homo sapiens, UniProt P42336); assay: PI3K biochemical assay (luciferase-luciferin ATP consumption); details: 1.5 nM enzyme, 1 μM ATP, 10 μM PIP2; read-out: IC50 for PI3Kα in this assay
# Protocol: PI3Kα activity is measured as the percent of ATP consumed following the kinase reaction using luciferase-luciferin-coupled chemiluminescence. Reactions were conducted in 384-well white, medium binding microtiter plates (Greiner). Kinase reactions were initiated by combining test compounds, ATP, substrate (PIP2), and kinase in a 20 μL volume in a buffer solution. The standard PI3Kalpha assay buffer is composed 50 mM Tris, pH 7.5, 1 mM EGTA, 10 mM MgCl2, 1 mM DTT and 0.03% CHAPS. The standard assay concentrations for enzyme, ATP, and substrate are 1.5 nM, 1 μM, and 10 μM, respectively. The reaction mixture was incubated at ambient temperature for approximately 2 h. Following the kinase reaction, a 10 μL aliquot of luciferase-luciferin mix (Promega Kinase-Glo) was added and the chemiluminescence signal measured using a Victor2 plate reader (Perkin Elmer). Total ATP consumption was limited to 40-60% and IC50 values of control compounds correlate well with literature references. Substituting PI3Kα with PI3Kβ, PI3Kγ, or PI3Kδ, the inhibitory activity of the compounds for the other isoforms of I3K were measured.
# [2] = target: mTOR/GbL/Raptor (mTORC1) (Homo sapiens, UniProt P42345); assay: mTOR/GbL/Raptor (mTORC1) ELISA assay; type: biochemical; details: phosphorylation of 4E-BP1; 0.2 nM mTORC1, 10 μM ATP; read-out: IC50 in this assay (mTORC1 ELISA)
# How it was run: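 ELISA read-out: phospho-4E-BP1 captured on Ni-chelate plates and detected with anti-phospho antibody plus HRP-anti-IgG luminescence. The kinase step ran 120 min at ambient temperature with 0.2 nM human mTORC1, 10 µM ATP, 50 nM His-4E-BP1, 10 mM MnCl2, pH 7.2 HEPES.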
# Chain of PI3Kα (P42336 whole entry, species assumed): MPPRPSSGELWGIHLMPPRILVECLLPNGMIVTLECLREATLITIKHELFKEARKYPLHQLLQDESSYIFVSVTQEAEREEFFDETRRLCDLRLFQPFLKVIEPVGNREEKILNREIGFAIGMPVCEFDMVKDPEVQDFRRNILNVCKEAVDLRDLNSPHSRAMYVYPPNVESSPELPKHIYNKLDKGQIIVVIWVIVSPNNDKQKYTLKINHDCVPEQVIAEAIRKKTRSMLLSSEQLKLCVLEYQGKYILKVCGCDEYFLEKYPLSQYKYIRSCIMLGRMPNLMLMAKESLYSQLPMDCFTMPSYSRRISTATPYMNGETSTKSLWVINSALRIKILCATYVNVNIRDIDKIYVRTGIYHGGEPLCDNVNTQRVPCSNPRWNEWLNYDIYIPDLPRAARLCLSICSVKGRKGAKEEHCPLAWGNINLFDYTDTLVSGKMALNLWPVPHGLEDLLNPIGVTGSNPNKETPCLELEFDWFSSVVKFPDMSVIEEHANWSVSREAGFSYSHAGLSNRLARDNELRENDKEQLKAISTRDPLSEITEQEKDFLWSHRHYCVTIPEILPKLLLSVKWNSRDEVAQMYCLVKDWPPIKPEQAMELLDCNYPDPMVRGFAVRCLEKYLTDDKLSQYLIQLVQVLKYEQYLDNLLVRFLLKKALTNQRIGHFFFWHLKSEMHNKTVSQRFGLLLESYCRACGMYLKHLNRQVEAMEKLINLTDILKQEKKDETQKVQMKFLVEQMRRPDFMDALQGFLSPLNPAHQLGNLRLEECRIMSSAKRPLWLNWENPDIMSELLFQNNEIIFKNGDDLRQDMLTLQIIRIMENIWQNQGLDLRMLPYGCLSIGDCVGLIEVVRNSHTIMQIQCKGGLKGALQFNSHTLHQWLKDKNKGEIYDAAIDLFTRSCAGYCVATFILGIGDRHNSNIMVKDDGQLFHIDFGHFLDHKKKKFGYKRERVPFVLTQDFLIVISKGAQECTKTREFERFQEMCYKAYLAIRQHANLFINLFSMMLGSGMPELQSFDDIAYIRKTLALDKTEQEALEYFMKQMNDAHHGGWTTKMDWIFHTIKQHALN
# Chain of PI3Kα (P27986 whole entry partner, species assumed): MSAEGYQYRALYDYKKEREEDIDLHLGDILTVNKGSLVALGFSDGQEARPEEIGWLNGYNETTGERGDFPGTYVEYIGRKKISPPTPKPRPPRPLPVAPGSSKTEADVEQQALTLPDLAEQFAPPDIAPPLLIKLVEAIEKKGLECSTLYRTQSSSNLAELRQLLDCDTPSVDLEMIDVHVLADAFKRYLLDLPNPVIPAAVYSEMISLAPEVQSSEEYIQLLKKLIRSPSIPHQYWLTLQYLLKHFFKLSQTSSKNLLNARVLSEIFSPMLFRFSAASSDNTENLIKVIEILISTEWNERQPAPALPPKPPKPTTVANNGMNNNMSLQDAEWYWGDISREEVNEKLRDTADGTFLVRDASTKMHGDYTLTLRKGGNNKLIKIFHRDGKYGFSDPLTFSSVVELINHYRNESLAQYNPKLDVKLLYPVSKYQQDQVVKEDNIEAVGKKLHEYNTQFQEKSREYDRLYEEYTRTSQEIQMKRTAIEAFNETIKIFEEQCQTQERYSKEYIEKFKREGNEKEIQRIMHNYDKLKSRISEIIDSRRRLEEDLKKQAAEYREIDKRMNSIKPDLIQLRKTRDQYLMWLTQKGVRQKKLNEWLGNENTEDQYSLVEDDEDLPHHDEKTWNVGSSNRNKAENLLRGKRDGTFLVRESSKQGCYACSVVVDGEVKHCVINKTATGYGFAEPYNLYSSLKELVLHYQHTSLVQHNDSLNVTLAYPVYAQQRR
SMILES,pIC50 [1],pIC50 [2]
"Cc1nc2c(-c3ccc4c(c3)CN(c3ncnc5c3CC(C)(C)CC5)CCO4)cncc2[nH]1 [Example 475, 4-(6,6-dimethyl-5,6,7,8-tetrahydroquinazolin-4-yl)-7-(2-methyl-3H-imidazo[4,5-c]pyridin-7-yl)-2,3,4,5-tetrahydro-1,4-benzoxazepine]",≤ 5.70,≤ 5.70
"[H]/N=c1\ncc(-c2ccc3c(c2)CN(c2ncnc4c2CC(C)(C)CC4)CCO3)cn1O [Example 231, (2E)-5-[4-(6,6-dimethyl-5,6,7,8-tetrahydroquinazolin-4-yl)-2,3,4,5-tetrahydro-1,4-benzoxazepin-7-yl]-2-iminopyrimidin-1(2H)-ol]",≤ 5.70,5.70 to 6.00
"Cc1c(N2CCOc3ccc(-c4cnc5nc(C6CC6)[nH]c5c4)cc3C2)ncnc1N(C)[C@H](C)c1ccccc1 [Example 535, 6-[7-(2-cyclopropyl-1H-imidazo[4,5-b]pyridin-6-yl)-2,3-dihydro-1,4-benzoxazepin-4(5H)-yl]-N,5-dimethyl-N-[(1R)-1-phenylethyl]pyrimidin-4-amine]",5.70 to 6.00,6.00 to 6.60
"Cc1ncc(S(=O)(=O)N(C)C)c(N2CCOc3ccc(-c4cnc5nc(C)[nH]c5c4)cc3C2)n1 [Example 611, N,N,2-trimethyl-4-[7-(2-methyl-1H-imidazo[4,5-b]pyridin-6-yl)-2,3-dihydro-1,4-benzoxazepin-4(5H)-yl]pyrimidine-5-sulfonamide]",5.70 to 6.00,6.00 to 6.60
"COc1cccc(-c2ccc3c(c2)CN(c2nc(CN(C)C)nc4c2CC(C)(C)CC4)CCO3)c1 [Example 328, 1-(6,6-dimethyl-4-{7-[3-(methyloxy)phenyl]-2,3-dihydro-1,4-benzoxazepin-4(5H)-yl]-5,6,7,8-tetrahydroquinazolin-2-yl)-N,N-dimethylmethanamine]",5.70 to 6.00,≤ 5.70
"OCc1ncc(-c2ccc(-c3ccc4c(c3)CN(c3ncnc5cccnc35)CCO4)cc2)[nH]1 [Example 212, {5-[4-(4-pyrido[3,2-d]pyrimidin-4-yl-2,3,4,5-tetrahydro-1,4-benzoxazepin-7-yl)phenyl]-1H-imidazol-2-yl}methanol]",≤ 5.70,6.00 to 6.60
"Cc1nc2ccc(-c3ccc4c(c3)CN(c3ncccn3)CCO4)cc2[nH]1 [Example 106, 7-(2-methyl-1H-benzimidazol-6-yl)-4-pyrimidin-2-yl-2,3,4,5-tetrahydro-1,4-benzoxazepine]",5.70 to 6.00,5.70 to 6.00
"C[C@H](NC(=O)OCc1ccccc1)c1nc2ncc(-c3ccc4c(c3)CN(c3ncnc5c3CC(C)(C)CC5)CCO4)cc2[nH]1 [Example 647, phenylmethyl [(1S)-1-{6-[4-(6,6-dimethyl-5,6,7,8-tetrahydroquinazolin-4-yl)-2,3,4,5-tetrahydro-1,4-benzoxazepin-7-yl]-1H-imidazo[4,5-b]pyridin-2-yl}ethyl]carbamate]",≤ 5.70,6.00 to 6.60
"c1ccc2c(N3CCOc4ccc(-c5ccsc5)cc4C3)ccnc2c1 [Example 204, 4-quinolin-4-yl-7-(3-thienyl)-2,3,4,5-tetrahydro-1,4-benzoxazepine]",5.70 to 6.00,≤ 5.70
"Cc1nc2ccc(-c3ccc4c(c3)CN(c3ncnc5c3CSC5)CCO4)cc2[nH]1 [Example 75, 4-(5,7-dihydrothieno[3,4-d]pyrimidin-4-yl)-7-(2-methyl-1H-benzimidazol-6-yl)-2,3,4,5-tetrahydro-1,4-benzoxazepine]",5.70 to 6.00,6.00 to 6.60
"CC1(C)CCc2ncnc(N3CCOc4ccc(-c5cnc6c(c5)OCC(=O)N6)cc4C3)c2C1 [Example 572, 7-[4-(6,6-dimethyl-5,6,7,8-tetrahydroquinazolin-4-yl)-2,3,4,5-tetrahydro-1,4-benzoxazepin-7-yl]-2H-pyrido[3,2-b][1,4]oxazin-3(4H)-one]",5.70 to 6.00,≤ 5.70
Cc1nc2ccc(-c3ccc4c(c3)CN(c3cc(C(C)(C)O)nc5c3CC(C)(C)CC5)CCO4)cc2[nH]1 [Example 362],6.60 to 7.30,6.60 to 7.30
"COCCOC(=O)Nc1nc2ccc(-c3ccc4c(c3)CN(c3ccnc5ccccc35)CCO4)cc2[nH]1 [Example 118, 2-(methyloxy)ethyl [6-(4-quinolin-4-yl-2,3,4,5-tetrahydro-1,4-benzoxazepin-7-yl)-1H-benzimidazol-2-yl]carbamate]",5.70 to 6.00,–
"Cc1ccc(N2Cc3ncnc(N4CCOc5ccc(-c6ccc7nc(C)[nH]c7c6)cc5C4)c3C2)cc1 [Example 88, 7-(2-methyl-1H-benzimidazol-6-yl)-4-[6-(4-methylphenyl)-6,7-dihydro-5H-pyrrolo[3,4-d]pyrimidin-4-yl]-2,3,4,5-tetrahydro-1,4-benzoxazepine]",≤ 5.70,5.70 to 6.00
COc1cc(-c2ccc3c(c2)CN(c2nc(CN(C)C)nc4c2CC(C)(C)CC4)CCO3)ccc1Cl [Example 326],5.70 to 6.00,6.00 to 6.60
"CNC(=O)c1cccc(-c2ccc3c(c2)CN(c2nc(C)nc4cc(OC)ccc24)CCO3)c1 [Example 644, N-methyl-3-{4-[2-methyl-7-(methyloxy)quinazolin-4-yl]-2,3,4,5-tetrahydro-1,4-benzoxazepin-7-yl}benzamide]",≤ 5.70,–
"Cn1ncc2cc(-c3ccc4c(c3)CN(c3ccnc5ccccc35)CCO4)ccc21 [Example 139, 7-(1-methyl-1H-indazol-5-yl)-4-quinolin-4-yl-2,3,4,5-tetrahydro-1,4-benzoxazepine]",5.70 to 6.00,–
"Cc1nc2ncc(-c3ccc4c(c3)CN(c3nc(CN(C)C)nc5ccc(F)cc35)CCO4)cc2[nH]1 [Example 359, 1-{6-fluoro-4-[7-(2-methyl-1H-imidazo[4,5-b]pyridin-6-yl)-2,3-dihydro-1,4-benzoxazepin-4(5H)-yl]quinazolin-2-yl}-N,N-dimethylmethanamine]",–,6.00 to 6.60
"CN(C)Cc1nc2c(c(N3CCOc4ccc(-c5ccc(N)nc5)cc4C3)n1)CC(C)(C)CC2 [Example 509, 5-(4-{2-[(dimethylamino)methyl]-6,6-dimethyl-5,6,7,8-tetrahydroquinazolin-4-yl}-2,3,4,5-tetrahydro-1,4-benzoxazepin-7-yl)pyridin-2-amine]",–,6.60 to 7.30
"Cc1nc2cc(-c3ccc4c(c3)CN(c3nc(CNCCF)nc(C)c3C(C)C)CCO4)ccc2[nH]1 [Example 679, 2-fluoro-N-({4-methyl-6-[7-(2-methyl-1H-benzimidazol-5-yl)-2,3-dihydro-1,4-benzoxazepin-4(5H)-yl]-5-(1-methylethyl)pyrimidin-2-yl}methyl)ethanamine]",–,7.30 to 8.00
"Cc1nc2ncc(-c3ccc4c(c3)CN(c3nc(CN5CC[C@H](F)C5)nc5c3CC(C)(C)CC5)CCO4)cc2[nH]1 [Example 464, 4-(2-{[(3S)-3-fluoropyrrolidin-1-yl]methyl}-6,6-dimethyl-5,6,7,8-tetrahydroquinazolin-4-yl)-7-(2-methyl-1H-imidazo[4,5-b]pyridin-6-yl)-2,3,4,5-tetrahydro-1,4-benzoxazepine]",–,7.30 to 8.00
"Cc1ncnc(N2CCOc3ccc(-c4ccc5nc(N)ncc5c4)cc3C2)c1Cc1ccc(F)cc1 [Example 143, 6-(4-{5-[(4-fluorophenyl)methyl]-6-methylpyrimidin-4-yl}-2,3,4,5-tetrahydro-1,4-benzoxazepin-7-yl)quinazolin-2-amine]",–,7.30 to 8.00
"CC[C@H]1CCc2c(nc(C)nc2N2CCOc3ccc(-c4cnc5nc([C@H](C)NC(=O)OCc6ccccc6)[nH]c5c4)cc3C2)C1 [Example 646, phenylmethyl [(1S)-1-(6-{4-[(7S)-7-ethyl-2-methyl-5,6,7,8-tetrahydroquinazolin-4-yl]-2,3,4,5-tetrahydro-1,4-benzoxazepin-7-yl}-1H-imidazo[4,5-b]pyridin-2-yl)ethyl]carbamate]",5.70 to 6.00,–
"COC(=O)Nc1nc2ncc(-c3ccc4c(c3)CN(c3ncnc5c3CC(C)(C)CC5)CCO4)cc2[nH]1 [Example 582, methyl {6-[4-(6,6-dimethyl-5,6,7,8-tetrahydroquinazolin-4-yl)-2,3,4,5-tetrahydro-1,4-benzoxazepin-7-yl]-1H-imidazo[4,5-b]pyridin-2-yl}carbamate]",–,≥ 8.00
"CCc1nc2ncc(-c3ccc4c(c3)CN(c3nc(C)nc5c3CC(C)(C)CC5)CCO4)cc2[nH]1 [Example 548, 7-(2-ethyl-1H-imidazo[4,5-b]pyridin-6-yl)-4-(2,6,6-trimethyl-5,6,7,8-tetrahydroquinazolin-4-yl)-2,3,4,5-tetrahydro-1,4-benzoxazepine]",–,≥ 8.00
"COc1ccc2c(N3CCOc4ccc(-c5ccc(-c6ncc[nH]6)cc5)cc4C3)nc(C)nc2c1 [Example 256, 7-[4-(1H-imidazol-2-yl)phenyl]-4-[2-methyl-7-(methyloxy)quinazolin-4-yl]-2,3,4,5-tetrahydro-1,4-benzoxazepine]",–,7.30 to 8.00
"CC1(C)CCc2ncnc(N3CCOc4ccc(-c5cnc(N)c(NS(C)(=O)=O)c5)cc4C3)c2C1 [Example 620, N-{2-amino-5-[4-(6,6-dimethyl-5,6,7,8-tetrahydroquinazolin-4-yl)-2,3,4,5-tetrahydro-1,4-benzoxazepin-7-yl]pyridin-3-yl}methanesulfonamide]",–,6.60 to 7.30
